# Test results: ChEMBL document CHEMBL1127517 (J Med Chem, 1994)
# What was measured:
# Rattus norvegicus [1] = assay: Distribution of radio activity in tissues of unfasted male rats was measured at 120 min of time in brain after intravenous administration; type: ADME, organism-based; details: in vivo, 2 h
# Rattus norvegicus [2] = assay: Distribution of radio activity in tissues of unfasted male rats was measured at 60 min of time in thyroid after intravenous administration; type: ADME, organism-based, Thyroid gland; details: in vivo, 1 h
# [3] = target: Sodium-dependent dopamine transporter (Rattus norvegicus, UniProt P23977); assay: Inhibitory constant towards reuptake of [125I]-13 from dopamine transporter in rat striatal membranes; type: cell membranes, Membrane
# Rattus norvegicus [4] = assay: Distribution of radio activity in tissues of unfasted male rats was measured at 30 min of time in lung after intravenous administration; type: ADME, organism-based; details: in vivo, 0.5 h
# Rattus norvegicus [5] = assay: Distribution of radio activity in tissues of unfasted male rats was measured at 2 min of time in liver after intravenous administration; type: ADME, organism-based; details: in vivo
# Rattus norvegicus [6] = assay: Distribution of radio activity in tissues of unfasted male rats was measured as regional uptake at 60 min of time in striatum after intravenous administration; type: ADME, organism-based; details: in vivo, 1 h
# Rattus norvegicus [7] = assay: Distribution of radio activity in tissues of unfasted male rats was measured as regional uptake at 30 min of time in striatum after intravenous administration; type: ADME, organism-based; details: in vivo, 0.5 h
# Rattus norvegicus [8] = assay: Distribution of radio activity in tissues of unfasted male rats was measured at 2 min of time in blood after intravenous administration; type: ADME, organism-based; details: in vivo
# Rattus norvegicus [9] = assay: Distribution of radio activity in tissues of unfasted male rats was measured at 120 min of time in liver after intravenous administration; type: ADME, organism-based; details: in vivo, 2 h
# Rattus norvegicus [10] = assay: Distribution of radio activity in tissues of unfasted male rats was measured as regional uptake at 30 min of time in cerebellum after intravenous administration; type: ADME, organism-based; details: in vivo, 0.5 h
# Rattus norvegicus [11] = assay: Distribution of radio activity in tissues of unfasted male rats was measured at 60 min of time in kidney after intravenous administration; type: ADME, organism-based; details: in vivo, 1 h
# Rattus norvegicus [12] = assay: Distribution of radio activity in tissues of unfasted male rats was measured as regional uptake at 120 min of time in striatum after intravenous administration; type: ADME, organism-based; details: in vivo, 2 h
# Rattus norvegicus [13] = assay: Distribution of radio activity in tissues of unfasted male rats was measured at 60 min of time in muscle after intravenous administration; type: ADME, organism-based, Muscle tissue; details: in vivo, 1 h
# Rattus norvegicus [14] = assay: Distribution of radio activity in tissues of unfasted male rats was measured as regional uptake at 2 min of time in hippocampus after intravenous administration; type: ADME, organism-based; details: in vivo
# Rattus norvegicus [15] = assay: Distribution of radio activity in tissues of unfasted male rats was measured at 120 min of time in muscle after intravenous administration; type: ADME, organism-based, Muscle tissue; details: in vivo, 2 h
# Rattus norvegicus [16] = assay: Distribution of radio activity in tissues of unfasted male rats was measured as regional uptake at 2 min of time in striatum after intravenous administration; type: ADME, organism-based; details: in vivo
# Rattus norvegicus [17] = assay: Distribution of radio activity in tissues of unfasted male rats was measured at 60 min of time in heart after intravenous administration; type: ADME, organism-based; details: in vivo, 1 h
# Rattus norvegicus [18] = assay: Distribution of radio activity in tissues of unfasted male rats was measured as regional uptake at 30 min of time in cortex after intravenous administration; type: ADME, organism-based; details: in vivo, 0.5 h
# Rattus norvegicus [19] = assay: Distribution of radio activity in tissues of unfasted male rats was measured at 2 min of time in brain after intravenous administration; type: ADME, organism-based; details: in vivo
# Rattus norvegicus [20] = assay: Distribution of radio activity in tissues of unfasted male rats was measured as regional uptake at 60 min of time in cerebellum after intravenous administration; type: ADME, organism-based; details: in vivo, 1 h
# Rattus norvegicus [21] = assay: Distribution of radio activity in tissues of unfasted male rats was measured at 120 min of time in thyroid after intravenous administration; type: ADME, organism-based, Thyroid gland; details: in vivo, 2 h
# Rattus norvegicus [22] = assay: Distribution of radio activity in tissues of unfasted male rats was measured at 2 min of time in heart after intravenous administration; type: ADME, organism-based; details: in vivo
# Rattus norvegicus [23] = assay: Distribution of radio activity in tissues of unfasted male rats was measured as regional uptake at 120 min of time in cortex after intravenous administration; type: ADME, organism-based; details: in vivo, 2 h
# Rattus norvegicus [24] = assay: Distribution of radio activity in tissues of unfasted male rats was measured at 30 min of time in spleen after intravenous administration; type: ADME, organism-based; details: in vivo, 0.5 h
# Rattus norvegicus [25] = assay: Distribution of radio activity in tissues of unfasted male rats was measured as regional uptake at 60 min of time in hippocampus after intravenous administration; type: ADME, organism-based; details: in vivo, 1 h
# Rattus norvegicus [26] = assay: Distribution of radio activity in tissues of unfasted male rats was measured as regional uptake at 30 min of time in hippocampus after intravenous administration; type: ADME, organism-based; details: in vivo, 0.5 h
# Rattus norvegicus [27] = assay: Distribution of radio activity in tissues of unfasted male rats was measured at 60 min of time in blood after intravenous administration; type: ADME, organism-based; details: in vivo, 1 h
# Rattus norvegicus [28] = assay: Distribution of radio activity in tissues of unfasted male rats was measured at 60 min of time in liver after intravenous administration; type: ADME, organism-based; details: in vivo, 1 h
# Rattus norvegicus [29] = assay: Distribution of radio activity in tissues of unfasted male rats was measured at 2 min of time in muscle after intravenous administration; type: ADME, organism-based, Muscle tissue; details: in vivo
# Rattus norvegicus [30] = assay: Distribution of radio activity in tissues of unfasted male rats was measured at 60 min of time in skin after intravenous administration; type: ADME, organism-based; details: in vivo, 1 h
# Rattus norvegicus [31] = assay: Distribution of radio activity in tissues of unfasted male rats was measured at 2 min of time in thyroid after intravenous administration; type: ADME, organism-based, Thyroid gland; details: in vivo
# Rattus norvegicus [32] = assay: Distribution of radio activity in tissues of unfasted male rats was measured as regional uptake at 2 min of time in cortex after intravenous administration; type: ADME, organism-based; details: in vivo
# Rattus norvegicus [33] = assay: Distribution of radio activity in tissues of unfasted male rats was measured at 120 min of time in spleen after intravenous administration; type: ADME, organism-based; details: in vivo, 2 h
# Rattus norvegicus [34] = assay: Distribution of radio activity in tissues of unfasted male rats was measured as regional uptake at 60 min of time in cortex after intravenous administration; type: ADME, organism-based; details: in vivo, 1 h
# Rattus norvegicus [35] = assay: Distribution of radio activity in tissues of unfasted male rats was measured at 60 min of time in brain after intravenous administration; type: ADME, organism-based; details: in vivo, 1 h
# Rattus norvegicus [36] = assay: Distribution of radio activity in tissues of unfasted male rats was measured as regional uptake at 60 min of time in ST/CB after intravenous administration; type: ADME, organism-based; details: in vivo, 1 h
# Rattus norvegicus [37] = assay: Distribution of radio activity in tissues of unfasted male rats was measured at 30 min of time in heart after intravenous administration; type: ADME, organism-based; details: in vivo, 0.5 h
# Rattus norvegicus [38] = assay: Distribution of radio activity in tissues of unfasted male rats was measured at 60 min of time in spleen after intravenous administration; type: ADME, organism-based; details: in vivo, 1 h
# Rattus norvegicus [39] = assay: Distribution of radio activity in tissues of unfasted male rats was measured as regional uptake at 30 min of time in ST/CB after intravenous administration; type: ADME, organism-based; details: in vivo, 0.5 h
# Rattus norvegicus [40] = assay: Distribution of radio activity in tissues of unfasted male rats was measured at 120 min of time in kidney after intravenous administration; type: ADME, organism-based; details: in vivo, 2 h
# Rattus norvegicus [41] = assay: Distribution of radio activity in tissues of unfasted male rats was measured at 30 min of time in kidney after intravenous administration; type: ADME, organism-based; details: in vivo, 0.5 h
# Rattus norvegicus [42] = assay: Distribution of radio activity in tissues of unfasted male rats was measured at 30 min of time in blood after intravenous administration; type: ADME, organism-based; details: in vivo, 0.5 h
# Rattus norvegicus [43] = assay: Distribution of radio activity in tissues of unfasted male rats was measured as regional uptake at 120 min of time in ST/CB after intravenous administration; type: ADME, organism-based; details: in vivo, 2 h
# Rattus norvegicus [44] = assay: Distribution of radio activity in tissues of unfasted male rats was measured as regional uptake at 120 min of time in cerebellum after intravenous administration; type: ADME, organism-based; details: in vivo, 2 h
# Rattus norvegicus [45] = assay: Distribution of radio activity in tissues of unfasted male rats was measured at 30 min of time in brain after intravenous administration; type: ADME, organism-based; details: in vivo, 0.5 h
# Rattus norvegicus [46] = assay: Distribution of radio activity in tissues of unfasted male rats was measured at 30 min of time in thyroid after intravenous administration; type: ADME, organism-based, Thyroid gland; details: in vivo, 0.5 h
# Rattus norvegicus [47] = assay: Distribution of radio activity in tissues of unfasted male rats was measured at 120 min of time in skin after intravenous administration; type: ADME, organism-based; details: in vivo, 2 h
# Sequence of Sodium-dependent dopamine transporter (P23977 whole entry): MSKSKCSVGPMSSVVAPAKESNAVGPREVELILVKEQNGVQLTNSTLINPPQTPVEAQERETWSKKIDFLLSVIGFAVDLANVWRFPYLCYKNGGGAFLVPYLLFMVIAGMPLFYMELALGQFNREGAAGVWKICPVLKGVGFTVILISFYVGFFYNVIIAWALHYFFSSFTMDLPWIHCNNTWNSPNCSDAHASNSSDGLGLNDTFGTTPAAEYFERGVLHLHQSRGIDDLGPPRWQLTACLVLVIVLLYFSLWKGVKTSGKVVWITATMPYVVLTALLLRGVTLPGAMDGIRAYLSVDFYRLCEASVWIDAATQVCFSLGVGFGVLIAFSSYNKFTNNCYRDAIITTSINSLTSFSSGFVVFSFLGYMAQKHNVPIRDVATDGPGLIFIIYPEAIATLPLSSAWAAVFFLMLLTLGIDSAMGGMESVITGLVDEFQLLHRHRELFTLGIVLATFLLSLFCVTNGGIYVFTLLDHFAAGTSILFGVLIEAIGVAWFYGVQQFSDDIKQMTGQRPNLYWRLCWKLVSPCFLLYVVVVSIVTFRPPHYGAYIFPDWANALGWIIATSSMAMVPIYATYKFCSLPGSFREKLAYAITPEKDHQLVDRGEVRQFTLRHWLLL
compound,measurement,setting,value
COC(=O)C1C(c2ccc(Cl)cc2)CC2CCC1N2C/C=C\I (centres undefined),Injected dose/organ,Rattus norvegicus [1],0.04%
same,Injected dose/organ,Rattus norvegicus [2],0.94%
same,Ki,[3],6.3 nM
same,Injected dose/organ,Rattus norvegicus [4],0.78%
same,Injected dose/organ,Rattus norvegicus [5],12.13%
same,Dose/g,Rattus norvegicus [6],0.11%
same,Dose/g,Rattus norvegicus [7],0.33%
same,Injected dose/organ,Rattus norvegicus [8],5.01%
same,Injected dose/organ,Rattus norvegicus [9],1.28%
same,Dose/g,Rattus norvegicus [10],0.19%
same,Injected dose/organ,Rattus norvegicus [11],0.56%
same,Dose/g,Rattus norvegicus [12],0.05%
same,Injected dose/organ,Rattus norvegicus [13],12.22%
same,Dose/g,Rattus norvegicus [14],0.69%
same,Injected dose/organ,Rattus norvegicus [15],9.22%
same,Dose/g,Rattus norvegicus [16],0.92%
same,Injected dose/organ,Rattus norvegicus [17],0.16%
same,Dose/g,Rattus norvegicus [18],0.11%
same,Injected dose/organ,Rattus norvegicus [19],1.27%
same,Dose/g,Rattus norvegicus [20],0.04%
same,Injected dose/organ,Rattus norvegicus [21],1.29%
same,Injected dose/organ,Rattus norvegicus [22],0.85%
same,Dose/g,Rattus norvegicus [23],0.03%
same,Injected dose/organ,Rattus norvegicus [24],0.19%
same,Dose/g,Rattus norvegicus [25],0.04%
same,Dose/g,Rattus norvegicus [26],0.12%
same,Injected dose/organ,Rattus norvegicus [27],5.77%
same,Injected dose/organ,Rattus norvegicus [28],1.6%
same,Injected dose/organ,Rattus norvegicus [29],29.15%
same,Injected dose/organ,Rattus norvegicus [30],24.81%
same,Injected dose/organ,Rattus norvegicus [31],0.08%
same,Dose/g,Rattus norvegicus [32],0.91%
same,Injected dose/organ,Rattus norvegicus [33],0.09%
same,Dose/g,Rattus norvegicus [34],0.04%
same,Injected dose/organ,Rattus norvegicus [35],0.07%
same,Dose/g,Rattus norvegicus [36],2.7%
same,Injected dose/organ,Rattus norvegicus [37],0.22%
same,Injected dose/organ,Rattus norvegicus [38],0.11%
same,Dose/g,Rattus norvegicus [39],3%
same,Injected dose/organ,Rattus norvegicus [40],0.46%
same,Injected dose/organ,Rattus norvegicus [41],0.78%
same,Injected dose/organ,Rattus norvegicus [42],8%
same,Dose/g,Rattus norvegicus [43],1.9%
same,Dose/g,Rattus norvegicus [44],0.02%
same,Injected dose/organ,Rattus norvegicus [45],0.21%
same,Injected dose/organ,Rattus norvegicus [46],1.02%
same,Injected dose/organ,Rattus norvegicus [47],19.3%
COC(=O)C1C(c2ccc(Cl)cc2)CC2CCC1N2C/C=C/I (centres undefined),Injected dose/organ,Rattus norvegicus [1],0.13%
same,Injected dose/organ,Rattus norvegicus [2],0.97%
same,Ki,[3],3.2 nM
same,Injected dose/organ,Rattus norvegicus [4],0.91%
same,Injected dose/organ,Rattus norvegicus [5],11.77%
same,Dose/g,Rattus norvegicus [6],1.23%
same,Dose/g,Rattus norvegicus [7],1.67%
same,Injected dose/organ,Rattus norvegicus [8],2.98%
same,Injected dose/organ,Rattus norvegicus [9],1.44%
same,Dose/g,Rattus norvegicus [10],0.23%
same,Injected dose/organ,Rattus norvegicus [11],0.58%
same,Dose/g,Rattus norvegicus [12],0.61%
same,Injected dose/organ,Rattus norvegicus [13],12.14%
same,Dose/g,Rattus norvegicus [14],0.84%
same,Injected dose/organ,Rattus norvegicus [15],9.04%
same,Dose/g,Rattus norvegicus [16],1.15%
same,Injected dose/organ,Rattus norvegicus [17],0.19%
same,Dose/g,Rattus norvegicus [18],0.22%
same,Injected dose/organ,Rattus norvegicus [19],1.62%
same,Dose/g,Rattus norvegicus [20],0.077%
same,Injected dose/organ,Rattus norvegicus [21],1.06%
same,Injected dose/organ,Rattus norvegicus [22],1.05%
same,Dose/g,Rattus norvegicus [23],0.05%
same,Injected dose/organ,Rattus norvegicus [24],0.23%
same,Dose/g,Rattus norvegicus [25],0.095%
same,Dose/g,Rattus norvegicus [26],0.26%
same,Injected dose/organ,Rattus norvegicus [27],5.24%
same,Injected dose/organ,Rattus norvegicus [28],1.97%
same,Injected dose/organ,Rattus norvegicus [29],28.27%
same,Injected dose/organ,Rattus norvegicus [30],23.9%
same,Injected dose/organ,Rattus norvegicus [31],0.06%
same,Dose/g,Rattus norvegicus [32],1.15%
same,Injected dose/organ,Rattus norvegicus [33],0.09%
same,Dose/g,Rattus norvegicus [34],0.08%
same,Injected dose/organ,Rattus norvegicus [35],0.28%
same,Dose/g,Rattus norvegicus [36],15.9%
same,Injected dose/organ,Rattus norvegicus [37],0.29%
same,Injected dose/organ,Rattus norvegicus [38],0.12%
same,Dose/g,Rattus norvegicus [39],6.91%
same,Injected dose/organ,Rattus norvegicus [40],0.46%
same,Injected dose/organ,Rattus norvegicus [41],0.86%
same,Injected dose/organ,Rattus norvegicus [42],7.12%
same,Dose/g,Rattus norvegicus [43],16.5%
same,Dose/g,Rattus norvegicus [44],0.037%
same,Injected dose/organ,Rattus norvegicus [45],0.58%
same,Injected dose/organ,Rattus norvegicus [46],0.76%
same,Injected dose/organ,Rattus norvegicus [47],20%
